{"source": "paper PMC5007466", "about": "“VCP recruitment to mitochondria causes mitophagy impairment and neurodegeneration in models of Huntington's disease” (Nature Communications, 2016)", "key": {"[1]": {"system": "HD patient-iPS cell derived neurons", "assay": "Lysosomal activity (Lyso-ID Red)", "format": "cell-based, human", "conditions": "1 μM per day for 5 days", "procedure": "(§1) iPS cells from a normal subject and a HD patient (carrying 41 CAG repeats) were differentiated into neurons using the protocol from our previous studies. Briefly, iPS cells were plated onto 6-well plates precoated with 2.5% Matrigel and allowed to reach 90% confluence in feeder-free medium. For the first 10 days, cells were treated with SB431542 (10 μM; Tocris Bioscience) and Noggin (100 ng/ml) in Neural Media (NM) containing Neurobasal and DMEM (1:1), B27 supplement minus vitamin A (50 × , Invitrogen), N2 supplement (100 × , Invitrogen), GlutaMax (Invitrogen, 100 × ), FGF2 ([…]) and EGF ([…]), 100 units per ml penicillin and 100 μg ml^−1 streptomycin). […]\n(§2) To determine mitochondrial mass in cultures, cells were stained with antibodies against Tom20 or stained with Mitotracker green. The fluorescent density of Tom20 (1:500) or mitotracker green was quantitated using NIH Image J software. […] The images were visualized by microscope and quantitation of the density of red fluorescence was carried out using NIH ImageJ software. For immunocytochemistry study, at least 100 cells per group were counted and quantitated by an observer blind to experimental conditions."}, "[2]": {"system": "HdhQ111 mouse striatal cells", "assay": "Mitochondrial length and mitophagosomes by electron microscopy", "format": "cell-based", "conditions": "3 uM/day for 3 days, EM", "text": "The HdhQ7 and HdhQ111 cells were fixed by 2.5% glutaraldehyde in 0.1 M cacodylate buffer. Small pieces of the striata tissue of mice were fixed by immersion in triple aldehyde-DMSO. After rinsing in 0.1 M phosphate buffer (pH 7.3), the samples were post-fixed in ferrocyanide-reduced osmium tetroxide.\nThe above fixed samples were rinsed by water followed by overnight soaking in acidified uranyl acetate. After rinsing in distilled water, the blocks were dehydrated in ascending concentrations of ethanol, passed through propylene oxide, and embedded in Poly/Bed resin. Thin sections were sequentially stained with acidified uranyl acetate followed by a modification of Sato's triple lead stain. These sections were examined in a FEI Tecnai Spirit (T12) transmission electron microscope with a Gatan US4000 4kx4k CCD at the Case Western Reserve University EM core facility. Mitochondria from 15 random areas in each group were imaged by an experimenter blind to the experimental groups. The length of mitochondria was measured by NIH Image J software. The number of mitophagosomes per 100 μm^2 was counted. The number of gold particles labelling VCP on mitochondria were quantitated."}, "[3]": {"system": "HdhQ111 mouse striatal cells", "assay": "HMGB1 release after serum withdrawal", "format": "cell-based", "conditions": "24 h serum withdrawal, 3 μM", "procedure": "HdhQ7 and Q111 mouse striatal cells were treated with the HV-3 peptide or the control peptide TAT (3 μM, each) in an FBS-free DMEM medium or in DMEM containing 10% serum for 24 h. Medium from the cultured cells was harvested. Proteins from the medium were purified using Amicon Ultra 0.5 ml centrifugal filters (Millipore). HMGB1 release into the medium was then analysed by Western blotting with anti-HMGB1 antibody. In parallel, cell death was determined by measuring LDH release into the culture medium, using LDH-Cytotoxicity Assay Kit II (Roche, USA) by following the manufacturer's instruction."}, "[4]": {"system": "HD patient-iPS cell derived neurons", "assay": "LDH release after BDNF withdrawal", "format": "cell-based, human", "conditions": "1 μM per day for 5 days, BDNF withdrawal 24 h", "procedure": "Figure 4 HV-3 treatment reduces mitochondrial damage and cell death in HD cell cultures. Mouse HdhQ7 and HdhQ111 striatal cells were treated with control peptide TAT or peptide HV-3 (3 uM/day for 3 days). (a) Left panel: Mitochondrial membrane potential (MMP) was determined by TMRM fluorescent dye. Right panel: HdhQ111 cells were transfected with control siRNA (siCon) and VCP siRNA (siVCP) for three days. The MMP was determined by TMRM in HdhQ111 cells treated with TAT or HV-3. (b) Mitochondrial morphology was determined by staining cells with anti-Tom20 antibody. Scale bar: 10 μm. The percentage of cells with fragmented mitochondria relative to the total number of cells was quantitated. At least 100 cells per group were counted. (c) Mitochondrial morphology was determined by EM. The length of mitochondria and the number of mitophagosomes were quantitated. At least 90 mitochondria per group were counted. […] HMGB1 release into culture medium was determined by IB analysis with anti-HMGB1 antibody. […] Cell death was determined by the release of LDH. […] (g) Quantitation of neurite length of medium spiny neurons. At least 50 neurons per group were counted by an observer blind to experimental conditions. (h) Left: the MMP was determined by TMRM fluorescent dye. […] Mitochondrial length along neurites of DARPP32/Tuj1-positive neurons was quantitated. […]"}, "[5]": {"system": "HD patient-iPS cell derived neurons", "assay": "Mitochondrial membrane potential (TMRM), iPS neurons", "format": "cell-based, human", "conditions": "1 μM per day for 5 days", "procedure": "as §1, §2"}}, "note": "Entries after “also recorded” stand apart in the source; their conditions may differ."}
{"smiles": "CSCC[C@H](NC(=O)[C@@H](NC(=O)[C@H](CC(C)C)NC(=O)[C@@H](NC(=O)[C@H](Cc1c[nH]cn1)NC(=O)CCCCCNC(=O)[C@H](CCCNC(=N)N)NC(=O)[C@H](CCCNC(=N)N)NC(=O)[C@H](CCCNC(=N)N)NC(=O)[C@H](CCC(N)=O)NC(=O)[C@H](CCCNC(=N)N)NC(=O)[C@H](CCCNC(=N)N)NC(=O)[C@H](CCCCN)NC(=O)[C@H](CCCCN)NC(=O)[C@H](CCCNC(=N)N)NC(=O)CNC(=O)[C@@H](N)Cc1ccc(O)cc1)C(C)C)C(C)C)C(=O)N[C@@H](CS)C(=O)N[C@@H](C)C(=O)N[C@H](C(N)=O)[C@@H](C)O", "note": "[HV-3]", "values": [{"measurement": "lysosome hyperactivity", "setting": "[1]", "result": "corrected these aberrant events"}, {"measurement": "mitochondrial length", "setting": "[2]", "result": "increased mitochondrial length"}, {"measurement": "number of mitophagosomes", "setting": "[2]", "result": "reduced this accumulation; also recorded: greatly reduced the accumulation of mitophagosomes"}, {"measurement": "HMGB1 release", "setting": "[3]", "result": "reduced the release of high mobility group box 1 (HMGB1)"}, {"measurement": "neuronal cell death", "setting": "[4]", "result": "suppressed neuronal cell death"}, {"measurement": "mitochondrial membrane potential", "setting": "[5]", "result": "improved MMP"}]}
